Converted amounts (≈) assume the structure as drawn. Peptide text beside a SMILES is read from it. * marks the point of attachment. C20 diacid = O=C(O)CCCCCCCCCCCCCCCCCCC(=O)*

Series [1] concerns the target T1, human amylin 3(a) receptor (human calcitonin receptor + RAMP-3), BHK570 cells (Homo sapiens, UniProt O60896+P30988).
T1 construct: host or cells: BHK570
Kind of series: Assay (II)b functional CRE-luciferase assay without albumin, human amylin receptor. The class given is cell-based. The note with it: Tested without HSA; read-out: hAmylin-R funct. EC50. In outline:
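Agonism measured as CRE-driven luciferase luminescence after 3 h sample exposure at 37 °C, without albumin (0.1% ovalbumin, Hepes pH 7.4 medium). Reporter cells: BHK570 carrying human calcitonin receptor, co-transfected with RAMP-3 to form the amylin 3(a) receptor.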

Series [2] has as its target T2, human calcitonin (a) receptor, BHK570 cells (Homo sapiens, UniProt P30988).
T2 construct: host or cells: BHK570
T2 sequence (P30988 25-474): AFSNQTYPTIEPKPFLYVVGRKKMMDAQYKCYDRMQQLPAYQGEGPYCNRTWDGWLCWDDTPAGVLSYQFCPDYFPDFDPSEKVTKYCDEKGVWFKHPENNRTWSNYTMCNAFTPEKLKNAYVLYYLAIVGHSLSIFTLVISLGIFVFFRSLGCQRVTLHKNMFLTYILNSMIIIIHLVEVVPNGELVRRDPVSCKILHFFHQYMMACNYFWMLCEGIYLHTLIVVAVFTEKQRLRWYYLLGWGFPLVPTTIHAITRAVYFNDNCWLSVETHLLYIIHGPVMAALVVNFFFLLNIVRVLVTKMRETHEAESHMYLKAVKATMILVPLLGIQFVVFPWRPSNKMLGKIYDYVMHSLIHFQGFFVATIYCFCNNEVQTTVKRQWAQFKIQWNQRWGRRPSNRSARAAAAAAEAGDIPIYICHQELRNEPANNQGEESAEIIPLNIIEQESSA
In words: Assay (II)a functional CRE-luciferase assay with albumin, human calcitonin receptor. It is filed as cell-based. The note with it: Tested with HSA; read-out: hCTR funct. EC50. An excerpt: (§1) Assay(II)a—Human Calcitonin and Amylin Receptor Assay
(§2) 1. Luciferase Assay Outline
(§3) Activation of calcitonin and amylin (co-expression of calcitonin receptor and receptor activity modifying proteins (RAMP)) receptors lead to increased intracellular concentrations of cAMP. Consequently, transcription is activated by promoters containing multiple copies of the cAMP response element (CRE). It is thus possible to measure amylin activity by the use of a CRE luciferase reporter gene introduced into BHK cells also expressing calcitonin or amylin receptors.
(§4) 2. Construction of Calcitonin (a)—and Amylin 3(a)—Receptor/CRE-Luc Cell Line.
(§5) A BHK570 cell line was stably transfected with the human calcitonin receptor and a CRE-responsive luciferase reporter gene. The cell line was further transfected with RAMP-3, using standard methods. This turns the calcitonin receptor into an amylin 3(a) receptor. Methotrexate, Neomycin, and Hygromycin are selection markers for luciferase, the calcitonin receptor, and RAMP-3, respectively.
(§6) To perform activity assays, BHK calcitonin (a) receptor- or amylin 3(a)-receptor/CRE-luc cells were seeded in white 96 well culture plates at a density of about 20.000 cells/well. […] After incubation overnight at 37° C. and 5% CO2, the growth medium was replaced by 50 μl/well assay medium (DMEM (without phenol red), Glutamax™, 10% FBS, and 10 mM Hepes, pH 7.4). Further, 50 μl/well of standard or sample in assay buffer were added.
(§7) After 3 hours incubation at 37° C. and 5% CO2, the assay medium with standard or sample were removed and replaced by 100 μl/well PBS. Further, 100 μl/well LucLite™ was added. The plates were sealed and incubated at room temperature for 30 minutes. Finally, luminescence was tested on a TopCounter (Packard) in SPC (single photon counting) mode.

Series [3] deals with T1, human amylin 3(a) receptor (human calcitonin receptor + RAMP-3), BHK570 cells. Kind of series: Assay (II)a functional CRE-luciferase assay with albumin, human amylin receptor. The class given is cell-based. The note with it: Tested with HSA; read-out: hAmylin-R funct. EC50.
Text: as §1, §2, §3, §4, §5, §6, §7

The target of series [4] is T3, human amylin receptor (human calcitonin receptor + human RAMP3), BHK tk'ts 13 cells (Homo sapiens, UniProt O60896+P30988).
T3 construct: expressed in transfected cells; host or cells: BHK tk'ts 13
In words: Assay (Va) binding to the human amylin receptor (whole cell). The note with it: read-out: hAmylin-R binding IC50. On the procedure:
The day before the assay the cells were Seeded into Poly-D-Lysin coated 384W Opaque White, BD BioCoat plates (10000 cells/well) and Incubated overnight at 37° C., 5% CO2, 95% humidity.

Series [5] addresses T2, human calcitonin (a) receptor, BHK570 cells. In words: Assay (II)b functional CRE-luciferase assay without albumin, human calcitonin receptor. It is filed as cell-based. The note with it: Tested without HSA; read-out: hCTR funct. EC50. In outline: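 BHK570 cells stably expressing human calcitonin receptor with CRE-luciferase reporter, plus RAMP-3 for the amylin 3(a) line. Cells stimulated 3 hours at 37 °C in albumin-free assay medium (0.1% ovalbumin, 10 mM Hepes pH 7.4); cAMP-driven luciferase read by luminescence.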

Series [6] in a line: Assay (IV) determination of solubility. The class given is physicochemical. On the procedure: Assay (IV)—Determination of Solubility
The mimylin peptide was dissolved in water at ˜500 nmol/ml and mixed 1:1 with a series of buffers (100 mM glycylglycine pH 3.0, 100 mM glycylglycine pH 4.0, 100 mM glycylglycine pH 5.0, 100 mM bistrispropane pH 6.0, 100 mM bistrispropane pH 6.5, 100 mM bistrispropane pH 7.0, 100 mM bistrispropane pH 7.5, 100 mM bistrispropane pH 8.0).

The target of series [7] is T4, human calcitonin receptor (Homo sapiens, UniProt P30988).
T4 construct: expressed in transfected cells; host or cells: BHK tk'ts 13
T4 sequence (P30988 25-474): T2 sequence (P30988 25-474)
Kind of series: Assay (VII) binding to the human calcitonin receptor (membrane, SPA). The note with it: membranes, 125I-Calcitonin; read-out: hCT-R binding IC50. As for the experimental part: Assay (VII)—Determination of Binding to the Human Calcitonin Receptor (Membrane)
The binding assay was performed using scintillation proximity assay (SPA) beads (RPNQ0001) from PerkinElmer® and cell membranes prepared from a BHK tk'ts 13 cell line was stably transfected with the human calcitonin receptor and a CRE-responsive luciferase reporter gene. Membranes were prepared in the following way; the cells were rinsed with PBS and incubated with Versene for approximately 5 min before harvesting. The cells were flushed with PBS and the cell-suspension was centrifuged for 5 min at 1000 rpm. Cells were homogenized in a buffer containing 20 mM Na-HEPES and 10 mM EDTA (pH 7.4) and centrifuged at 20.000 rpm for 15 min. The resulting pellet was resuspended, homogenized and centrifuged (20.000 rpm, 15 min) in a buffer containing 20 mM Na-HEPES and 0.1 mM EDTA (pH 7.4, buffer 2). The resulting pellet was resuspended in buffer 2 and protein concentration was tested (BCA protein Assay, Pierce). The homogenate was kept cold during the whole procedure. The membranes were kept at −80° C. until use. Assay was performed in a 384 well Optiplate (PerkinElmer®) in a total volume of 40 ul. Membranes were mixed with SPA beads. Final concentration of membranes 35 ng/μL final and Final concentration of SPA beads was 0.05 mg/well. Test-compounds were dissolved in DMSO and further diluted in assay buffer (50 mM Hepes, pH 7.4, 1 mM CaCl2, 5 mM MgCl2, 0.1% OA and 0.02% Tween20). Radioligand ^125I-Calcitonin was dissolved in assay buffer and added to the Optiplate at a final concentration of 75 pM/well (approx. 30.000 cpm/10 ul). The final mixture was incubated for 120 min with shaking at 400 rpm at 25° C. prior to centrifugation (1500 rpm, 10 min). Samples were analyzed on TopCounter™ (Packard). The IC50 was calculated using (one site binding competition analysis) GraphPad Prism5 as a measure of receptor affinity.

T1 sequence (O60896 24-148, one chain of several): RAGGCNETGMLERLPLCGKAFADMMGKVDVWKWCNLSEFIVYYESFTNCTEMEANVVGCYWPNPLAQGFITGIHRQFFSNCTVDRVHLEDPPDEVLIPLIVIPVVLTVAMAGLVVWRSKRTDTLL
T3 sequence (O60896 24-148, one chain of several): as above

For the compound `CC(C)C[C@H](NC(=O)CNC(=O)[C@H](CO)NC(=O)[C@H](C)NC(=O)CCCCCCCCCCCCCCCCCCC(=O)O)C(=O)N[C@@H](CO)C(=O)N[C@H](C(=O)N[C@@H](C)C(=O)N[C@@H](C)C(=O)N[C@@H](CC(C)C)C(=O)NCC(=O)N[C@@H](CCCNC(=N)N)C(=O)N[C@@H](CC(C)C)C(=O)N[C@@H](CO)C(=O)N[C@@H](CCC(N)=O)C(=O)N[C@@H](CCC(=O)O)C(=O)N[C@@H](CC(C)C)C(=O)N[C@@H](Cc1c[nH]cn1)C(=O)N[C@@H](CCC(=O)O)C(=O)N[C@@H](CC(C)C)C(=O)N[C@@H](CCC(N)=O)C(=O)N[C@H](C(=O)N[C@@H](Cc1ccc(O)cc1)C(=O)N1CCC[C@H]1C(=O)N[C@@H](CCCNC(=N)N)C(=O)N[C@H](C(=O)N[C@@H](CCC(=O)O)C(=O)N[C@H](C(=O)NCC(=O)N[C@@H](CO)C(=O)NCC(=O)N[C@H](C(=O)N[C@@H](Cc1ccc(O)cc1)C(N)=O)[C@@H](C)O)[C@@H](C)O)[C@@H](C)O)[C@@H](C)O)[C@@H](C)O` [compound 111, [N-terminal(C20 diacid), des1, 4G, 15Q, 21Q, 23Y, 30S, 31G, 32T, 33Y]mimylin] ({C20 diacid}-ASGLSTAALGRLSQELHELQTYPRTETGSGTY-NH2), the EC50 in series [1] is 0.022 nM; in series [2], 0.049 nM; in series [3], 0.052 nM; in series [5], 0.024 nM. Also, in series [4], the IC50 was 0.222 nM. In addition, the solubility at 18 h was 1 µM (≈ 3.72 µg/mL) in series [6] (bistrispropane buffer, pH 6.5); at least 200 µM in series [6] (glycylglycine buffer, pH 3.0); 1 µM (≈ 3.72 µg/mL) in series [6] (glycylglycine buffer, pH 4.0); 2 µM (≈ 7.44 µg/mL) in series [6] (glycylglycine buffer, pH 5.0).

On to `CC(=O)N[C@@H](C)C(=O)N[C@@H](CO)C(=O)N[C@@H](CCC(=O)O)C(=O)N[C@@H](CC(C)C)C(=O)N[C@@H](CO)C(=O)N[C@H](C(=O)N[C@@H](C)C(=O)N[C@@H](C)C(=O)N[C@@H](CC(C)C)C(=O)NCC(=O)N[C@@H](CCCNC(=N)N)C(=O)N[C@@H](CC(C)C)C(=O)N[C@@H](CO)C(=O)N[C@@H](C)C(=O)N[C@@H](CCC(=O)O)C(=O)N[C@@H](CC(C)C)C(=O)N[C@@H](Cc1c[nH]cn1)C(=O)N[C@@H](CCC(=O)O)C(=O)N[C@@H](CC(C)C)C(=O)N[C@@H](C)C(=O)N[C@H](C(=O)N[C@@H](CC(C)C)C(=O)N1CCC[C@H]1C(=O)N[C@@H](CCCNC(=N)N)C(=O)N[C@H](C(=O)N[C@@H](CCCCNC(=O)CC[C@H](NC(=O)CCCCCCCCCCCCCCCCCCC(=O)O)C(=O)O)C(=O)N[C@H](C(=O)NCC(=O)N[C@@H](CO)C(=O)NCC(=O)N[C@@H](CO)C(=O)N1CCC[C@H]1C(N)=O)[C@@H](C)O)[C@@H](C)O)[C@@H](C)O)[C@@H](C)O` [compound 71, [N-terminal(acetyl), des1, 27K(C20 diacid-gGlu), 30S, 31G]mimylin], for which the EC50 in series [1] was found to be 0.053 nM; in series [3], 0.164 nM; in series [5], 0.03 nM. In addition, the IC50 in series [7] worked out at 0.07 nM. Moreover, the solubility at 18 h was at least 200 µM in series [6] (bistrispropane buffer, pH 6.5); at least 200 µM in series [6] (bistrispropane buffer, pH 7.5); at least 200 µM in series [6] (bistrispropane buffer, pH 6.0); at least 200 µM in series [6] (bistrispropane buffer, pH 7.0); at least 200 µM in series [6] (bistrispropane buffer, pH 8.0); at least 200 µM in series [6] (glycylglycine buffer, pH 3.0). For the same compound, the solubility at 18 h is at least 200 µM in series [6] (glycylglycine buffer, pH 4.0) and at least 200 µM in series [6] (glycylglycine buffer, pH 5.0).

In general, EC50 refers to the concentration giving half of the maximal effect. For orientation: IC50 means the concentration at which inhibition is half-maximal. What is called solubility is the dissolved amount per volume that the medium holds. A higher solubility goes with a readily soluble substance.

Source of the values: patent US9593149B2, “Amylin and calcitonin receptor agonist” (Novo Nordisk A/S, priority 2014, dated 2017).
